Tested on: M. tuberculosis H37Rv
Experiment: microbe, parasite or virus in culture
Format: cell-based
Conditions: not given

In order of falling “% Inh” value:
1. CCOC(=O)Nc1cc2c(c(N)n1)N=C(c1ccccc1)[C@H](C)N2 [Compound A110]  43%
2. CCOC(=O)Nc1cc(NCc2ccccc2)c(N)c(N)n1 [Compound A154]  12%

Same assay, conditions: M. tuberculosis H37Rv, screen concentration 12.5 g/ml [sic], Table 8

In order of rising “% Inh” value:
1. CCOC(=O)Nc1cc(NC(C)C(=O)c2ccccc2)c([N+](=O)[O-])cn1 (centres unmarked) [Compound A314]  −36%
2. CCOC(=O)Nc1cc(N[C@@H](C)C(O)c2ccccc2)c([N+](=O)[O-])cn1 (some centres unmarked) [Compound A309]  −10%
3. CCOC(=O)Nc1cc(NC(C)C(O)c2ccc(O)cc2)c([N+](=O)[O-])c(N)n1 (centres unmarked) [Compound A303]  −2%
4. CCOC(=O)Nc1cc(NC(CC)C(O)c2ccccc2)c([N+](=O)[O-])c(N)n1 (centres unmarked) [Compound A301]  −1%
5. CCCCC(Nc1cc(NC(=O)OCC)nc(N)c1[N+](=O)[O-])C(C)O (centres unmarked) [Compound A302]  −1%
6. CCOC(=O)Nc1cc(N)c([N+](=O)[O-])c(NCC(O)CN(C)c2ccccc2)n1 (centres unmarked) [Compound A274]  0%
7. CCOC(=O)Nc1cc(NC/C(=N/O)c2ccc([N+](=O)[O-])cc2)c([N+](=O)[O-])c(N)n1 [Compound A238]  0%
8. C=CCNc1cc(NC(=O)OCC)nc(NC(=O)OCC)c1[N+](=O)[O-] [Compound A281]  0%
9. CCOC(=O)N(Cc1ccc(S(N)(=O)=O)cc1)c1cc(Cl)c([N+](=O)[O-])c(N)n1 [Compound A294]  0%
10. CCOC(=O)Nc1cc(NC/C(=N/O)c2cccc(OC)c2)c([N+](=O)[O-])c(N)n1 [Compound A231]  0%
11. CCOC(=O)Nc1cc(Cl)c2nn[nH]c2n1 [Compound A215]  0%
12. CCOC(=O)Nc1cc(NNC=O)c([N+](=O)[O-])c(N)n1 [Compound A205]  0%
13. CCOC(=O)Nc1cc(Nc2ccc(Cl)cc2)c2ncc(-c3ccc(Cl)cc3)nc2n1 [Compound A258]  0%
14. CCOC(=O)Nc1cc(NCC(=O)COc2ccc(C(=O)OCC)cc2)c([N+](=O)[O-])c(N)n1 [Compound A292]  0%
15. CCOC(=O)Nc1cc2c3c(n1)[nH]c(=S)n3c(=S)n2N [Compound A199]  0%
16. CCOC(=O)Nc1cc2[nH]c(-c3cccc(C)c3)nc2c(N(CCc2ccccc2)Cc2ccccc2)n1 [Compound A297]  0%
17. CCOC(=O)Nc1cc2c(c(N)n1)N=C(c1ccc([N+](=O)[O-])cc1)CO2 [Compound A225]  0%
18. CCOC(=O)Nc1cc(NC(C)CCCN(CC)CC)c2nccnc2n1 (centres unmarked) [Compound A253]  0%
19. CCOC(=O)Nc1cc(NC(c2ccccc2)c2ccccc2)c([N+](=O)[O-])c(OCC(=O)c2ccc(Br)cc2)n1 [Compound A295]  0%
20. CCOC(=O)Nc1cc2[nH]cnc2c(Cl)n1 [Compound A203]  0%
21. CCOC(=O)Nc1cc(N(C)/N=C/c2ccccc2)c([N+](=O)[O-])c(N)n1 [Compound A204]  0%
22. CCOC(=O)Nc1cc(NC(c2ccccc2)c2ccccc2)c(/N=C/c2ccc(Cl)cc2Cl)c(N)n1 [Compound A263]  0%
23. CCOC(=O)Nc1cc2c(c(N)n1)N=C(c1ccccc1)CO2 [Compound A224]  0%
24. CCOC(=O)Nc1cc(N)c2nnsc2n1 [Compound A218]  0%
25. CCOC(=O)Nc1cc(NCC(=O)c2ccc([N+](=O)[O-])cc2)c([N+](=O)[O-])c(N)n1 [Compound A220]  0%
26. CCOC(=O)Nc1cc(NC/C(=N/O)c2ccc(Cl)cc2)c([N+](=O)[O-])c(N)n1 [Compound A239]  0%
27. CCOC(=O)Nc1cc(N)c2nc(C)cnc2n1 [Compound A282]  0%
28. CCOC(=O)Nc1cc2c(c(N)n1)N=C(c1cccc(OC)c1)CO2 [Compound A190]  0%
29. CCOC(=O)Nc1cc2[nH]c(=O)c(-c3ccccc3)nc2c(N)n1 [Compound A196]  0%
30. CCOC(=O)Nc1cc(NCC(=O)c2ccc(F)cc2)c([N+](=O)[O-])c(N)n1 [Compound A211]  0%
31. CCOC(=O)Nc1cc(Cl)cc(NC(=O)OCC)n1 [Compound A185]  2%
32. CCCCC(O)C(C)Nc1cc(NC(=O)OCC)nc(N)c1N (centres unmarked) [Compound A181]  3%
33. CCCCC(=O)C(C)Nc1cc(NC(=O)OC)nc(N)c1[N+](=O)[O-] (centres unmarked) [Compound A180]  3%
34. CCOC(=O)Nc1cc(NC(C)C(O)c2ccc(O)cc2)c(N)c(N)n1 (centres unmarked) [Compound A179]  4%
35. CCOC(=O)Nc1cc(N[C@@H](C)[C@@H](O)c2ccc(O)cc2)c([N+](=O)[O-])c(N)n1 [Compound A178]  4%
36. CCOC(=O)Nc1cc(NC(C)/C(=N/O)c2ccccc2)c([N+](=O)[O-])c(N)n1 (centres unmarked) [Compound A172]  5%
37. CCOC(=O)Nc1cc2c(c(N)n1)N=C(c1cccc(N)c1)C(C)N2 (centres unmarked) [Compound A167]  7%
38. CCOC(=O)Nc1cc2c(c(N)n1)N=C(c1ccc(O)cc1)[C@@H](C)N2 [Compound A166]  8%
39. CCOC(=O)Nc1cc(N)c(N)c(N)n1 [Compound A156]  10%
40. CCOC(=O)Nc1cc2ncc(-c3ccccc3)nc2c(NC(C)=O)n1 [Compound A159]  10%
41. CCOC(=O)Nc1cc(N)c2nc(-c3ccccc3)cnc2n1 [Compound A148]  14%
42. CCOC(=O)Nc1cc2[nH]c(-c3ccc4c(c3)OCO4)nc2c(N(CCc2ccccc2)Cc2ccccc2)n1 [Compound A151]  14%
43. CCOC(=O)Nc1cc(NCC(=O)CN(C)c2ccccc2)c([N+](=O)[O-])c(N)n1 [Compound A143]  17%
44. CCOC(=O)Nc1cc(NC(C)C(=O)c2ccc3c(c2)OCO3)c([N+](=O)[O-])c(N)n1 (centres unmarked) [Compound A140]  19%
45. CCOC(=O)Nc1cc(N)c2nc(-c3ccccc3)c(N)nc2n1 [Compound A141]  19%
46. CCOC(=O)Nc1cc(NC(c2ccccc2)c2ccccc2)c([N+](=O)[O-])c(NC/C(=N/O)c2ccc(Cl)cc2)n1 [Compound A130]  28%
47. CCOC(=O)Nc1cc(NCC(O)CN(C)c2ccc(Cl)cc2)c([N+](=O)[O-])c(N)n1 (centres unmarked) [Compound A122]  31%
48. CCOC(=O)Nc1cc2oc(-c3cc(OC)c(OC)c(OC)c3)nc2c(N(CCc2ccccc2)Cc2ccccc2)n1 [Compound A124]  31%
49. COC(=O)Nc1cc2c(c(N)n1)N=C(c1ccccc1)[C@H](C)N2 [Compound A113]  41%
50. CCOC(=O)Nc1cc(N)c([N+](=O)[O-])c(N[C@H](C)C(=O)c2ccccc2)n1 [Compound A112]  42%
51. CCOC(=O)Nc1cc(NCc2ccccc2)c2nc[nH]c2n1 [Compound A111]  43%
52. CCOC(=O)Nc1cc2c(cn1)N=C(c1ccccc1)[C@H](C)N2 [Compound A105]  49%
53. CCOC(=O)Nc1cc(N)c2ncn(-c3ccccc3)c2n1 [Compound A103]  53%
54. CCOC(=O)Nc1cc(NCC(O)CN(C)c2ccccc2)c([N+](=O)[O-])c(N)n1 (centres unmarked) [Compound A101]  54%
55. CCOC(=O)Nc1cc(NC(C)CCCN(CC)CC)c2ncc(-c3ccc(C(F)(F)F)cc3)nc2n1 (centres unmarked) [Compound A102]  54%
56. CCOC(=O)Nc1cc(Cl)c([N+](=O)[O-])c(NC(=O)OCC)n1 [Compound A94]  59%
57. CCOC(=O)Nc1cc(Nc2ccc(Cl)cc2)c(N)c(N)n1 [Compound A92]  61%
58. CCCCC1Nc2cc(NC(=O)OCC)nc(N)c2N=C1C (centres unmarked) [Compound A87]  64%
59. CCOC(=O)Nc1cc(SC(=N)N)c([N+](=O)[O-])c(N)n1 [Compound A84]  66%
60. CCOC(=O)Nc1cc(NCCc2ccccc2)c([N+](=O)[O-])c(N)n1 [Compound A82]  68%
61. CCOC(=O)Nc1cc(N)c2ncn(/N=C/c3ccccc3)c2n1 [Compound A81]  69%
62. CCOC(=O)Nc1cc(N)c([N+](=O)[O-])c(Cl)n1 [Compound A76]  72%
63. CCOC(=O)Nc1cc2nc(-c3ccccc3)c(-c3ccccc3)nc2c(OCC)n1 [Compound A72]  75%
64. CCOC(=O)Nc1cc(NC(c2ccccc2)c2ccccc2)c2[nH]c(=O)cnc2n1 [Compound A70]  76%
65. CCOC(=O)Nc1cc(Nc2ccccc2)c2nc[nH]c2n1.Cl [Compound A64]  84%
66. CCOC(=O)Nc1cc2[nH]c(-c3ccc(C(F)(F)F)cc3)nc2c(N(CCc2ccccc2)Cc2ccccc2)n1 [Compound A32]  97%
67. CCOC(=O)Nc1cc2[nH]c(-c3cc(OC)c(OC)cc3OC)nc2c(N(CCc2ccccc2)Cc2ccccc2)n1 [Compound A29]  97%
68. COc1ccc(OC)c(-c2nc3c(N(CCc4ccccc4)Cc4ccccc4)nc(NC(=O)O)cc3[nH]2)c1 [Compound A30]  97%
69. CCOC(=O)Nc1cc2[nH]c(-c3ccccc3)nc2c(N(CCc2ccccc2)Cc2ccccc2)n1 [Compound A31]  97%
70. CCOC(=O)Nc1cc2nc(-c3ccc(Cl)cc3)[nH]c2c(N(CCc2ccccc2)Cc2ccccc2)n1 [Compound A27]  97%
71. CCOC(=O)Nc1cc2[nH]c(-c3ccccc3)nc2c(N(C)Cc2ccccc2)n1 [Compound A3]  99%

Same assay, conditions: Mycobacterium tuberculosis; M. tuberculosis H37Rv; at 12.5% μg/ml (so in the source); read-out: Primary Screen PI (% inhibition of growth)

In order of falling inhibition of growth at 12.5 µg/mL:
1. CCOC(=O)Nc1cc2nc(-c3ccccc3)c(-c3ccccc3)nc2c(N)n1 [Compound 3302-89F, (5-Amino-2,3-diphenyl-pyrido[3,4-b]pyrazin-7-yl)-carbamic acid ethyl ester]  92%
2. CCOC(=O)Nc1cc2c(c(N)n1)N=C(CN(C)c1ccc(OC)cc1)CN2 [SRI-5713, (5-Amino-3-{[(4-methoxy-phenyl)-methyl-amino]-methyl}-1,2-dihydro-pyrido[3,4-b]pyrazin-7-yl)-carbamic acid ethyl ester]  20%
3. CCCCNC(=O)Oc1ccc(C2=Nc3c(cc(NC(=O)OCC)nc3N)N[C@H]2C)cc1 [SRI-20158, [5-Amino-3-(4-butylcarbamoyloxy-phenyl)-2-methyl-1,2-dihydro-pyrido[3,4-b]pyrazin-7-yl]-carbamic acid ethyl ester]  10%

Same assay, conditions: in words

`CCOC(=O)Nc1cc2nc(-c3ccccc3)c(-c3ccccc3)nc2c(N)n1` [Compound 3302-89F, (5-Amino-2,3-diphenyl-pyrido[3,4-b]pyrazin-7-yl)-carbamic acid ethyl ester] was tested, and the “activity against M. tuberculosis H37Rv in the primary screen” value was “demonstrated activity”.
